Source: patent US20040229207A1 (priority 1999, published 2004)

The molecules below were run on LAB-1 (assay: Antibiotic sensitivity testing of LAB-1). Conditions: not given.
Assay type: cell-based
Protocol: A variety of biochemical tests were performed in order to identify the species and the genus of organism. The tests included: assessment of growth conditions, culture appearance, cell appearance and staining characteristics, optimal temperature and pH growth range, oxygen requirements, antibiotic sensitivity testing, tests for catalase and oxidase (using TAXOS N™ disks), amino acid utilization as carbon source, nitrogen fixation, motility test, and a variety of commercially available tests from MICRO-ID™, OXYFERM™, ENTEROTUBE™ and BIOLOG GN MICROPLATE™.
For `NCC[C@H](O)C(=O)N[C@@H]1C[C@H](N)[C@@H](O[C@H]2O[C@H](CN)[C@@H](O)[C@H](O)[C@H]2O)[C@H](O)[C@H]1O[C@H]1O[C@H](CO)[C@@H](O)[C@H](N)[C@H]1O` [Amikacin], the “Antibiotic Susceptibility” value was “sensitive”.
With `CC1(C)S[C@@H]2[C@H](NC(=O)[C@H](N)c3ccccc3)C(=O)N2[C@H]1C(=O)O` [Ampicillin] the “Antibiotic Susceptibility” value was “resistant”.
With `CC[C@H]1OC(=O)[C@H](C)[C@@H](O[C@H]2C[C@@](C)(OC)[C@@H](O)[C@H](C)O2)[C@H](C)[C@@H](O[C@@H]2O[C@H](C)C[C@H](N(C)C)[C@H]2O)[C@](C)(O)C[C@@H](C)C(=O)[C@H](C)[C@@H](O)[C@]1(C)O` [Erythromycin] the “Antibiotic Susceptibility” value was “resistant”.
With `CO[C@@H]1[C@@H](OC(N)=O)[C@@H](O)[C@H](Oc2ccc3c(O)c(NC(=O)c4ccc(O)c(CC=C(C)C)c4)c(=O)oc3c2C)OC1(C)C` [Novobiocin] the “Antibiotic Susceptibility” value was “sensitive”.
`[H]/N=C(/N)N[C@H]1[C@H](O)[C@@H](O)[C@H](O[C@@H]2O[C@@H](C)[C@](O)(C=O)[C@H]2O[C@@H]2O[C@@H](CO)[C@H](O)[C@@H](O)[C@@H]2NC)[C@@H](N/C(N)=N\[H])[C@@H]1O` [Streptomycin] was tested, and the “Antibiotic Susceptibility” value was “resistant”.
In the case of Neomycin, the “Antibiotic Susceptibility” value was “sensitive”.
With Penicillin the “Antibiotic Susceptibility” value was “resistant”.
In the case of Polymyxin B, the “Antibiotic Susceptibility” value was “sensitive”.

Each molecule was assayed on LAB-1 strain (assay: Inhibition of LAB-1 growth, cell attachment and biofilm production in growth media). Conditions: 0.1-1.0% (w/v) in liquid or solid growth media.
Assay type: cell-based
Excerpt: It would be apparent to one of ordinary skill in the art to apply the above methods to inhibit the production of mucoid compounds and biofilm in any mucoid organism.
For `CC(C)Cc1ccc(C(C)C(=O)O)cc1` (stereo not shown) [ibuprofen, 2-(4-isobutylphenyl)-propionic acid], the “growth, development, cell attachment and biofilm production of LAB-1” value was “differentially inhibits”.
In the case of `CCC(=O)O` [propionic acid], the “growth, development, cell attachment and biofilm production of LAB-1” value was “differentially inhibits”.
